According to patent US20230390319A1, “INTERFERON GENE STIMULATOR COMPOSITION COMPRISING INDOLIZINE DERIVATIVE AS ACTIVE INGREDIENT” (AJOU UNIVERSITY INDUSTRY-ACADEMIC COOPERATION FOUNDATION, priority 2020, published 2023):
Entries after “also recorded” stand apart in the source; their conditions may differ.

How the values were obtained:
ISRE reporter signal = assay: ISRE luciferase reporter assay, THP-1 cells co-treated with compound and cGAMP; type: cell-based, Human
Method: (§1) Human monocytic THP-1 wild-type (WT) and STING knockout (KO) cell lines were obtained from InvivoGen. Cells were cultured in 1×RPMI 1640 medium containing 10% fetal bovine serum (FBS, Hyclone), 2.05 mM L-glutamine (Hyclone) and 1% penicillin (Corning) in a humidified incubator at 37° C. under 5% CO2.
(§2) To confirm immune responses, THP-1 cells were placed in 384-well plates (Grenier), and treated with each compound and cGAMP (1 μg/ml), and after 24 hours, ISRE activity was analyzed. QUANTI-Luc assay (InvivoGen) was performed using the cell culture supernatant to confirm the luciferase reporter gene signal. Fluorescent signals were measured using a TECAN micro plate reader SPARK, and the results were normalized to DMSO control.
(§3) THP-1 cells were co-treated with each of 86 indolizine derivatives and a very small amount of cGAMP (1 μg/ml), the immune response of the THP-1 cells was examined by ISRE reporter assay, and the cytotoxicity of co-treatment was also evaluated (Table 1). All results were compared by normalization to the reporter assay results obtained by treatment with cGAMP alone. […] Thus, Compound 42 was used in subsequent experiments.

THP-1 cells = assay: Cell viability assay (CellTiter Clo) in THP-1 cells; type: cell-based, Human
Method: as §1
Cells were analyzed using CellTiter Clo (CTG, Promega). […] was measured using a TECAN micro plate reader SPARK. Results were normalized to DMSO control.
as §3

STING KO cell line = assay: ISRE reporter assay in THP-1 STING KO cell line; type: cell-based, Human; conditions: co-treatment with cGAMP, FIG. 1
Method: as §1, §2

STING = assay: Activity comparison with STING pathway-activating therapeutic agent MV658; type: cell-based; conditions: compared with ENPP inhibitor MV658, FIG. 6
4T1 tumor cells = assay: In vivo anticancer activity, 4T1 tumor in BALB/c mice; conditions: Compound 42 20 mg/kg intravenous once daily + cGAMP 2 μg intratumoral every 4 days, compared to cGAMP alone, FIG. 7
Method: Eight-week-old female BALB/c mice (DBL) were used for experiments and inoculated subcutaneously with 0.5×10^6 4T1 tumor cells using PBS as the vehicle on the right flank. Following tumor implantation, mice were randomized into treatment groups, each consisting of N=4 (vehicle N=1). On day 5 after tumor cell injection, when the tumor volume reached about 100 mm^3, Compound 42 or vehicle was administrated by intravenous injection (20 mg/kg) or vehicle (5% DMSO, 5% Tween 80 in PBS). 2′3′-cGAMP (InvivoGen) was injected by intratumoral injection (2 μg in PBS). Compound 42 was injected once daily, and cGAMP was injected once every 4 days. Tumor and body weight measurements were performed using digital calipers and a weigh scale, respectively. Tumor volume was estimated using the following Equation 1:
Tumor volume=(length×width^2)/2 [Equation 1]
Mice were euthanized when the tumor volume reached about 2,000 mm^3.

CC(=O)c1ccc(-c2cc(C(=O)c3ccc(C(F)(F)F)cc3)n3ccccc23)cc1 [Compound 42]
ISRE reporter effect in WT cell line (ISRE reporter signal; THP-1 WT, co-treatment with cGAMP, FIG. 1): increased effect
Normalized RU (relative unit of ISRE reporter signal) (ISRE reporter signal; THP-1 cells, 20 μM of each compound, co-treated with cGAMP (1 μg/ml), 24 hours): 9.32
efficacy in ISRE reporter assay (ISRE reporter signal; co-administered with cGAMP, among 86 indolizine derivatives): highest efficacy
Normalized cell viability (THP-1 cells; THP-1 cells, 20 μM of each compound, co-treated with cGAMP (1 μg/ml)): 1.20
cytotoxicity of co-treatment (THP-1 cells; co-treatment with cGAMP): no cytotoxicity; also recorded: did not cause toxicity
ISRE reporter effect in STING KO cell line (STING KO cell line): no effect
degree of STING-dependent immune response activation (STING): better activity
tumor volume (4T1 tumor cells): effectively reduced the tumor volume
